pEC50: −log10 of the molar value. Counter-ions that a name gives are not always drawn.
Assays:
[1] = biological target: human sphingosine-1-phosphate 1 receptor (S1P1 receptor) (Homo sapiens, UniProt P21453); experiment: Ca2+ inducing ability using CHO cells overexpressing human S1P1 receptor (Calcium 5 assay kit); assay type: cell-based; settings: CHO cells overexpressing human S1P1, calcium RFU; S1P 1 μM = 100%
Text: Evaluation of Ca^2+ inducing ability of test compound using a cell line expressing human sphingosine-1-phosphate
CHO (Chinese hamster ovary) cells which overexpress human sphingosine-1-phosphate 1 receptor (S1P1 receptor) that react with sphingosine-1-phosphate (S1P) are used for a functional test method wherein an increase of calcium indicates a therapeutic efficacy of an agonist compound.
To prepare CHO cells which overexpress human S1P1˜S1P5, human clones for each subtype having HA at the N terminal residue (S1P1: EDG010TN00, S1P2: EDG020TN00, S1P3: EDG030TN00, S1P4: EDG060TN00, S1P5: EDG080TN00) were purchased from the Missouri S&T cDNA Resource Center and co-transfected with G-protein alpha subunit (G-alpha-16) into CHO-K1 cells.
A calcium measurement kit (Calcium 5 assay kit, Molecular Devices) was used to select an agonist compound. The principle of calcium measurement is that calcium-sensitive dyes are applied to cells, they enter into the cytoplasm of the cells during incubation, and when a ligand binds to a certain receptor to release calcium into the cytoplasm, the dyes bind to said calcium to induce fluorescence which is measured. This test method can sensitively measure only the intracellular calcium concentration change because any change that may occur outside the cells is masked by a masking dye.
The experimental procedure was as follows. One day before calcium measurement, CHO cells overexpressing hS1P1˜hS1P5 were dispensed into a 96-well plate (bottom clear black well) in 3×10^4 cells per well and cultured at 37° C. under 5% carbon dioxide condition for one day. 100 μl of calcium dyes mixed with Assay Buffer (1×HBSS, 20 mM HEPES, 2.5 mM probenecid, pH 7.4) were dispensed into culture solution in well and cultured at 37° C. for one hour. Test compounds were dissolved in 100% DMSO to prepare 1 μl solution per each concentration, and each solution was mixed with 199 μl Assay Buffer such that the concentrations were 50, 5, 0.5, 0.05, 0.005 and 0.0005 μM. The plate cultured with the calcium dyes was put into FlaxstationII (Molecular Devices), and the prepared test compounds (the final concentrations of the test compounds: 10, 1, 0.1, 0.01, 0.001 and 0.0001 μM) were programmed to be automatically inoculated in 50 μl per each well. For a total of 90 seconds, RFU (relative fluorescence unit) values were measured. The value of Reference (S1P substance 1 μM) deducting the blank value was set as 100%, and EC50 values of the test compounds were calculated by prism.

lymphocytes in blood = experiment: Rat peripheral blood lymphocyte decrease; assay type: in vivo; settings: male SD rat, administered once, 6 hours after administration
Procedure: Evaluation of Rat Peripheral Blood Lymphocyte Decrease
Lymphocyte decrease in blood by S1P1 agonist was evaluated using a male SD rat. After adapting a rat weighing about 250 g to a breeding facility for one week, a test compound was administered to it once. At 3 hours, 6 hours, 24 hours and 48 hours after administration, blood was taken from a tail caudal vein, and about 200 μl of the blood was put into an EDTA tube while preventing it from clotting, followed by measurement of the number of lymphocytes in blood. The number of lymphocytes was analyzed by a hematological examination device, Hemoanalyzer. The doses of the test compounds were 3 mg/kg for Example 52, 94, 108, 117, 142, 145, 146, 148 and 149 compounds, and 1 mg/kg for Example 150, 151, 153, 154, 155, 158, 159 and 161 compounds.

Chain of human sphingosine-1-phosphate 1 receptor (S1P1 receptor) (P21453 whole entry): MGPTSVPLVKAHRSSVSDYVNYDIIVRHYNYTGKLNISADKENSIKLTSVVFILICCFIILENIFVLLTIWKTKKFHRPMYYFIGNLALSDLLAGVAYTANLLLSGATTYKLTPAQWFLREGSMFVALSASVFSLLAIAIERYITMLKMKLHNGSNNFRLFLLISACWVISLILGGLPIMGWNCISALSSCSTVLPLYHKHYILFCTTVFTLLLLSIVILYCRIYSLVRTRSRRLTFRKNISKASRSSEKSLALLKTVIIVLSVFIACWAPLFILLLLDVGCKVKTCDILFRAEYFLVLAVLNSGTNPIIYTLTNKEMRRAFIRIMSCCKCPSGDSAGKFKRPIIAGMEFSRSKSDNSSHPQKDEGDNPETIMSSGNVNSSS

pEC50 [1]	SMILES	Lymphocyte count (degree of decrease in lymphocyte number) (lymphocytes in blood; 3 mg/kg) [%]	Lymphocyte count (degree of decrease in lymphocyte number) (lymphocytes in blood; 1 mg/kg) [%]
8.00	Cc1cc(CCC(=O)O)ccc1-c1noc(-c2ccc3c(c2)c(Cl)cn3C(C)C)n1 [Example 52, 3-{4-[5-(3-chloro-1-isopropyl-1H-indol-5-yl)-[1,2,4]oxadiazol-3-yl]-3-methyl-phenyl}-propanoic acid]	−80	–
7.85	CC(C)n1nc(Cl)c2cc(COc3ccc4c(c3)CCC(CN3CCCC(F)(C(=O)O)C3)=C4Cl)ccc21 (stereo not shown) [Example 158, 1-[1-chloro-6-(3-chloro-1-isopropyl-1H-indazol-5-ylmethoxy)-3,4-dihydro-naphthalen-2-ylmethyl]-3-fluoro-piperidine-3-carboxylic acid]	–	−30
7.77	CC(C)n1nc(Cl)c2cc(COc3ccc4c(c3)CCC(CN3CCC(F)(C(=O)O)CC3)=C4Cl)ccc21 [Example 154, 1-[1-chloro-6-(3-chloro-1-isopropyl-1H-indazol-5-ylmethoxy)-3,4-dihydro-naphthalen-2-ylmethyl]-4-fluoro-piperidine-4-carboxylic acid]	–	−65
8.22	Cc1c(-c2noc(-c3ccc4c(c3)c(Cl)nn4C(C)C)n2)ccc2c1CCN(CCC(=O)O)C2 [Example 94, 3-{6-[5-(3-chloro-1-isopropyl-1H-indazol-5-yl)-[1,2,4]oxadiazol-3-yl]-5-methyl-3,4-dihydro-1H-isoquinolin-2-yl}-propanoic acid, trifluoroacetate]	−82	–
7.92	CC(C)n1nc(Cl)c2cc(COc3ccc4c(c3)CCC(CN3CCC(C(=O)O)CC3)=C4Cl)cnc21 [Example 159, 1-[1-chloro-6-(3-chloro-1-isopropyl-1H-pyrazolo[3,4-b]pyridin-5-ylmethoxy)-3,4-dihydro-naphthalen-2-ylmethyl]-piperidine-4-carboxylic acid]	–	−80
7.72	CC1=C(CN2CCCC(C(=O)O)CC2)CCc2cc(OCc3ccc4c(c3)c(Cl)nn4C(C)C)ccc21 (stereo not shown) [Example 149, 1-[6-(3-chloro-1-isopropyl-1H-indazol-5-ylmethoxy)-1-methyl-3,4-dihydro-naphthalen-2-ylmethyl]-azepane-4-carboxylic acid]	−80	–
8.05	CC1=C(CN(C)CC(=O)O)CCc2cc(OCc3ccc4c(c3)c(Cl)nn4C(C)C)ccc21 [Example 145, {[6-(3-chloro-1-isopropyl-1H-indazol-5-ylmethoxy)-1-methyl-3,4-dihydro-naphthalen-2-ylmethyl]-methyl-amino}-acetic acid]	−48	–
8.30	CC1=C(CN2CC(C(=O)O)C2)CCc2cc(OCc3ccc4c(c3)c(Cl)nn4C(C)C)ccc21 [Example 146, 1-[6-(3-chloro-1-isopropyl-1H-indazol-5-ylmethoxy)-1-methyl-3,4-dihydro-naphthalen-2-ylmethyl]-azetidine-3-carboxylic acid]	−78	–
